In paper PMC9916978, “Enantioselective Human Serum Albumin Binding of Apremilast: Liquid Chromatographic, Fluorescence and Molecular Docking Study” (International Journal of Molecular Sciences, 2023):

Tests used:
[1] = target: T1, human serum albumin (HSA) (Homo sapiens, UniProt P02768); test: van 't Hoff thermodynamic analysis on the Chiral-HSA column; format: binding; conditions: 10 mM phosphate buffer/IPA 96/4 v/v%, 10–30 °C, transfer from mobile phase to HSA stationary phase
T1 construct: purchased Chiral Technologies Inc., a subsidiary of Daicel Chemical Industries Ltd
T1 sequence (P02768 25-609): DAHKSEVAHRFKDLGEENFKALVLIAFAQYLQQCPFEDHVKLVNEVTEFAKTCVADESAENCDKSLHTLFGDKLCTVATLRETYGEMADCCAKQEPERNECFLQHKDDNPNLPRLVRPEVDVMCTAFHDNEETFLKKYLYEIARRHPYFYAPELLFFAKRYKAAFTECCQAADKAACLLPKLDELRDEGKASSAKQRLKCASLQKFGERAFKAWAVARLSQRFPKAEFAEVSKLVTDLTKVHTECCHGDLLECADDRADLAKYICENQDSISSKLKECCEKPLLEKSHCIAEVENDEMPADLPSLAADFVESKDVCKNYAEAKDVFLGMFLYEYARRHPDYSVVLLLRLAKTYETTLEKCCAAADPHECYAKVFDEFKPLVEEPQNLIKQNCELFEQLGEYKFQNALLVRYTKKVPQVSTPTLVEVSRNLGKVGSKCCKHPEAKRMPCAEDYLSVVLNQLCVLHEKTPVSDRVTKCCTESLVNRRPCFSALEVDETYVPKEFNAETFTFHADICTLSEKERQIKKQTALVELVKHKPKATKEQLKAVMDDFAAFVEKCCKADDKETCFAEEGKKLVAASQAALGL
Experimental: The separation temperature is one of the main determinant factors that can affect selectivity, resolution, retention factor and even the elution order of enantiomers during HPLC enantioseparations. To investigate the effects of temperature and to gain a better understanding of the mechanistic aspects of the enantiodiscrimination process on the Chiral-HSA column, thermodynamic analysis was performed in a 10 mM phosphate buffer/IPA 96/4 v/v% mixture.
To understand the energetic interactions between the analytes and the stationary phase, the classical van ’t Hoff approach was applied assuming only enantioselective interaction sites on the stationary phase. However, it should be noted that it is more realistic if both enantioselective and non-enantioselective interactions are considered.
Van ’t Hoff plots were constructed according to Equation (1) by plotting the natural logarithm of the retention factor as a function of the inverse of the absolute temperature in the temperature range of 10–30 °C, with 5 °C increments (a higher temperature was not applied due to possible column damage) (1) lnk=[…]+ΔS^°/R+lnΦ where R stands for the universal gas constant, T is the temperature in Kelvin, and k is the retention factor of the individual enantiomers. ΔH° denotes the standard enthalpy, while ΔS° is the standard entropy change of transfer of the solute from the mobile phase to the stationary phase, and Φ is the phase ratio of the HSA column. If ΔH° is constant in the selected temperature range, a linear relationship is obtained between lnk and 1/T, with a slope of −ΔH°/R and an intercept of ΔS°/R + lnΦ. Since the value of the phase ratio is seldom known, ΔS°* values (ΔS°* = ΔS° + RlnΦ) are often used to compensate for the uncertainty in Φ [38, 39].
Similarly, the differences in the change of standard enthalpy Δ(ΔH°) and standard entropy Δ(ΔS°) for the two enantiomers moving from the mobile phase to the stationary phase were also calculated according to the modified van ’t Hoff equation:(2) lnα=−∆(∆H^°)/RT+∆(∆S^°)/R
The isoenantioselective temperatures (Tiso) were also calculated as the ratio between Δ(ΔH°) and Δ(ΔS°), according to Equation (3). Tiso represents the temperature at which the enthalpy contribution is compensated by the entropic term, which means that […] (Δ(ΔG°)) equals zero. The thermodynamic parameter Δ(ΔG°) provides information on the strength of binding between selector and selectant, with more negative values indicating a more efficient binding. Consequently, a value of Δ(ΔG°) = 0 means that there is no difference between the binding strength of the enantiomers; therefore, at Tiso, the two enantiomers co-elute, and no separation is achieved. (3) Tiso=∆(∆H^°)/∆(∆S^°) (4) ∆(∆G^°)=∆(∆H^°)−T∗∆(∆S^°)

[2] = target: T1, human serum albumin (HSA); test: Albumin-bound percentage by zonal elution chromatography on Chiral-HSA column, extrapolated to zero organic modifier; format: binding; conditions: for Bound percentage (b%), Average + SD%: average over five organic modifiers
Excerpt: As it was observed, the decrease of the organic modifier percentage in the mobile phase caused an exponential increase in the retention times of both enantiomers. Therefore, for the calculations, the logarithm of the retention factors was plotted against the organic modifier proportion. With this conversion, a linear relationship was obtained, which could be easily extrapolated to zero for supposedly the best imitation of in vivo conditions. As the intercept of these linear equations, a k value is expressed that can be used to calculate the bound% according to Equation (7).
The separation factor (α) was calculated as follows:(6) α=k2/k1 where k1 and k2 are the retention factors of the first- and second-eluting enantiomer, respectively. The k values were used to calculate the albumin-bound percentage (b%) using Equation (7) by zonal elution chromatography:(7) b%=k/1+k·100

[3] = extrapolation to zero percentage of 1-propanol
[4] = extrapolation to zero percentage of ACN
[5] = extrapolation to zero percentage of EtOH
[6] = extrapolation to zero percentage of IPA
[7] = extrapolation to zero percentage of MeOH

| Δ(Δ)G° [1] | Δ(Δ)H° [1] | Δ(Δ)S° [1] | Bound percentage (b%), Average + SD% [2] | Bound percentage (b%) [2, 3] | Bound percentage (b%) [2, 4] | Bound percentage (b%) [2, 5] | Bound percentage (b%) [2, 6] | Bound percentage (b%) [2, 7] | SMILES |
| --- | --- | --- | --- | --- | --- | --- | --- | --- | --- |
| -1.06 kcal/mol | -7.237 kcal/mol | −86.78 J/molK | 95.5 ± 1.3% | 96.4% | 93.7% | 94.8% | 95.7% | 96.8% | CCOc1cc([C@@H](CS(C)(=O)=O)N2C(=O)c3cccc(NC(C)=O)c3C2=O)ccc1OC [S-APR, apremilast] |
| -0.906 kcal/mol | -6.338 kcal/mol | −76.29 J/molK | 92.7 ± 1.5% | 94.0% | 91.3% | 91.4% | 92.1% | 94.5% | CCOc1cc([C@H](CS(C)(=O)=O)N2C(=O)c3cccc(NC(C)=O)c3C2=O)ccc1OC [R-APR] |
